Source: US10688188B2, “Polytetrafluoroethylene co-polymer emulsions” (W. L. Gore & Associates, Inc., priority 2012, dated 2020)

Assay: Solubility statements
Assay type: physicochemical

solubility in acetone (DSP in acetone) | solubility in Fluorinert (Fluorinert FC77) | solubility in acetone (Solution V) (1.0 g in 100 g Solution V) | SMILES
nonsolvent | nonsolvent | – | C[C@@H]1C[C@H]2[C@@H]3CCC4=CC(=O)C=C[C@]4(C)[C@@]3(F)[C@@H](O)C[C@]2(C)[C@@]1(O)C(=O)COP(=O)(O)O [DSP, dexamethasone sodium phosphate]
– | – | dissolve completely | C[C@@H]1C[C@H]2[C@@H]3CCC4=CC(=O)C=C[C@]4(C)[C@@]3(F)[C@@H](O)C[C@]2(C)[C@@]1(O)C(=O)CO [dexamethasone]
